Experimental data taken from patent US9693556B2, “Herbicidal pyridazinone derivatives” (SYNGENTA LIMITED, priority 2011, dated 2017).

What was measured:
Assay type in all cases: in vivo
[1] = system: Alopecurus myosuroides (ALOMY); assay: Pre-emergence herbicidal glasshouse test on Alopecurus myosuroides; conditions: pre-emergence; 1000 g/h; evaluated after 13 days
Procedure, shortened: (§1)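 Steps: sow seeds in standard soil; cultivate 1 d (pre-) or 8 d (post-emergence) at 24/16 °C, 14 h light, 65% humidity; spray 1000 g/h in acetone/water plus Tween 20; grow on, watering twice daily; score percentage damage after 13 d.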

Setaria faberi (SETFA) [2] = assay: Pre-emergence herbicidal glasshouse test on Setaria faberi; conditions: pre-emergence; 1000 g/h; evaluated after 13 days
Procedure, shortened: as §1

[3] = system: Echinochloa crus-galli (ECHCG); assay: Pre-emergence herbicidal glasshouse test on Echinochloa crus-galli; conditions: pre-emergence; 1000 g/h; evaluated after 13 days
Procedure, shortened: as §1

Solanum nigrum (SOLNI) [4] = assay: Pre-emergence herbicidal glasshouse test on Solanum nigrum; conditions: pre-emergence; 1000 g/h; evaluated after 13 days
Procedure, shortened: as §1

[5] = system: Amaranthus retoflexus (AMARE); assay: Pre-emergence herbicidal glasshouse test on Amaranthus retoflexus; conditions: pre-emergence; 1000 g/h; evaluated after 13 days
Procedure, shortened: as §1

[6] = system: Ipomoea hederacea (IPOHE); assay: Pre-emergence herbicidal glasshouse test on Ipomoea hederacea; conditions: pre-emergence; 1000 g/h; evaluated after 13 days
Procedure, shortened: as §1

[7] = system: Alopecurus myosuroides (ALOMY); assay: Post-emergence herbicidal glasshouse test on Alopecurus myosuroides; conditions: post-emergence; 1000 g/h; evaluated after 13 days
Procedure, shortened: as §1

Setaria faberi (SETFA) [8] = assay: Post-emergence herbicidal glasshouse test on Setaria faberi; conditions: post-emergence; 1000 g/h; evaluated after 13 days
Procedure, shortened: as §1

[9] = system: Echinochloa crus-galli (ECHCG); assay: Post-emergence herbicidal glasshouse test on Echinochloa crus-galli; conditions: post-emergence; 1000 g/h; evaluated after 13 days
Procedure, shortened: as §1

Solanum nigrum (SOLNI) [10] = assay: Post-emergence herbicidal glasshouse test on Solanum nigrum; conditions: post-emergence; 1000 g/h; evaluated after 13 days
Procedure, shortened: as §1

[11] = system: Amaranthus retoflexus (AMARE); assay: Post-emergence herbicidal glasshouse test on Amaranthus retoflexus; conditions: post-emergence; 1000 g/h; evaluated after 13 days
Procedure, shortened: as §1

[12] = system: Ipomoea hederacea (IPOHE); assay: Post-emergence herbicidal glasshouse test on Ipomoea hederacea; conditions: post-emergence; 1000 g/h; evaluated after 13 days
Procedure, shortened: as §1

`Cn1ncc(-n2ccc(O)c(C#N)c2=O)c(O)c1=O` [Compound 1.066] was tested, and the “PRE Application ALOMY herbicidal damage (five point scale)” value (“PRE Application ALOMY herbicidal damage” below) [1] was 3 (3=40-59% damage), the “PRE Application SETFA herbicidal damage (five point scale)” value (“PRE Application SETFA herbicidal damage” for short) (Setaria faberi (SETFA) [2]) was 1 (1=0-19% damage) and the “PRE Application ECHCG herbicidal damage (five point scale)” value (from here on “PRE Application ECHCG herbicidal damage”) [3] was 2 (2=20-39% damage). For the same compound, the “PRE Application SOLNI herbicidal damage (five point scale)” value (from here on “PRE Application SOLNI herbicidal damage”) (Solanum nigrum (SOLNI) [4]) was 4 (4=60-79% damage), the “PRE Application AMARE herbicidal damage (five point scale)” value (from here on “PRE Application AMARE herbicidal damage”) [5] was 4 (4=60-79% damage) and the “PRE Application IPOHE herbicidal damage (five point scale)” value (from here on “PRE Application IPOHE herbicidal damage”) [6] was 5 (5=80-100% damage). For the same compound, the “POST Application ALOMY herbicidal damage (five point scale)” value (from here on “POST Application ALOMY herbicidal damage”) [7] was 2 (2=20-39% damage), the “POST Application SETFA herbicidal damage (five point scale)” value (shortened to “POST Application SETFA herbicidal damage”) (Setaria faberi (SETFA) [8]) was 1 (1=0-19% damage) and the “POST Application ECHCG herbicidal damage (five point scale)” value (“POST Application ECHCG herbicidal damage” below) [9] was 1 (1=0-19% damage). For the same compound, the “POST Application SOLNI herbicidal damage (five point scale)” value (from here on “POST Application SOLNI herbicidal damage”) (Solanum nigrum (SOLNI) [10]) was 3 (3=40-59% damage), the “POST Application AMARE herbicidal damage (five point scale)” value (shortened to “POST Application AMARE herbicidal damage”) [11] was 1 (1=0-19% damage) and the “POST Application IPOHE herbicidal damage (five point scale)” value (“POST Application IPOHE herbicidal damage” below) [12] was 2 (2=20-39% damage).
With `Cc1nc(C(F)(F)F)ccc1-c1cnn(C)c(=O)c1O` [Compound 1.067] the “PRE Application ALOMY herbicidal damage” value [1] was 1 (1=0-19% damage), the “PRE Application SETFA herbicidal damage” value (Setaria faberi (SETFA) [2]) was 1 (1=0-19% damage) and the “PRE Application ECHCG herbicidal damage” value [3] was 5 (5=80-100% damage). For the same compound, the “PRE Application SOLNI herbicidal damage” value (Solanum nigrum (SOLNI) [4]) was 3 (3=40-59% damage), the “PRE Application AMARE herbicidal damage” value [5] was 4 (4=60-79% damage) and the “PRE Application IPOHE herbicidal damage” value [6] was 2 (2=20-39% damage). For the same compound, the “POST Application ALOMY herbicidal damage” value [7] was 2 (2=20-39% damage), the “POST Application SETFA herbicidal damage” value (Setaria faberi (SETFA) [8]) was 4 (4=60-79% damage) and the “POST Application ECHCG herbicidal damage” value [9] was 5 (5=80-100% damage). For the same compound, the “POST Application SOLNI herbicidal damage” value (Solanum nigrum (SOLNI) [10]) was 5 (5=80-100% damage), the “POST Application AMARE herbicidal damage” value [11] was 5 (5=80-100% damage) and the “POST Application IPOHE herbicidal damage” value [12] was 5 (5=80-100% damage).
`Cc1nc(C(C)F)ccc1-c1cnn(C)c(=O)c1O` (stereo not drawn) [Compound 1.068] was tested, and the “PRE Application ALOMY herbicidal damage” value [1] was 2 (2=20-39% damage), the “PRE Application SETFA herbicidal damage” value (Setaria faberi (SETFA) [2]) was 2 (2=20-39% damage) and the “PRE Application ECHCG herbicidal damage” value [3] was 5 (5=80-100% damage). The “PRE Application SOLNI herbicidal damage” value (Solanum nigrum (SOLNI) [4]) was 4 (4=60-79% damage), the “PRE Application AMARE herbicidal damage” value [5] was 4 (4=60-79% damage) and the “PRE Application IPOHE herbicidal damage” value [6] was 3 (3=40-59% damage). The “POST Application ALOMY herbicidal damage” value [7] was 3 (3=40-59% damage), the “POST Application SETFA herbicidal damage” value (Setaria faberi (SETFA) [8]) was 3 (3=40-59% damage) and the “POST Application ECHCG herbicidal damage” value [9] was 5 (5=80-100% damage). The “POST Application SOLNI herbicidal damage” value (Solanum nigrum (SOLNI) [10]) was 5 (5=80-100% damage), the “POST Application AMARE herbicidal damage” value [11] was 5 (5=80-100% damage) and the “POST Application IPOHE herbicidal damage” value [12] was 5 (5=80-100% damage).
`Cn1ncc(-n2ccc3ccccc3c2=O)c(O)c1=O` [Compound 1.069] was tested, and the “PRE Application ALOMY herbicidal damage” value [1] was 1 (1=0-19% damage), the “PRE Application SETFA herbicidal damage” value (Setaria faberi (SETFA) [2]) was 2 (2=20-39% damage) and the “PRE Application ECHCG herbicidal damage” value [3] was 5 (5=80-100% damage). The “PRE Application SOLNI herbicidal damage” value (Solanum nigrum (SOLNI) [4]) was 2 (2=20-39% damage), the “PRE Application AMARE herbicidal damage” value [5] was 2 (2=20-39% damage) and the “PRE Application IPOHE herbicidal damage” value [6] was 4 (4=60-79% damage). The “POST Application ALOMY herbicidal damage” value [7] was 2 (2=20-39% damage), the “POST Application SETFA herbicidal damage” value (Setaria faberi (SETFA) [8]) was 1 (1=0-19% damage) and the “POST Application ECHCG herbicidal damage” value [9] was 5 (5=80-100% damage). The “POST Application SOLNI herbicidal damage” value (Solanum nigrum (SOLNI) [10]) was 4 (4=60-79% damage), the “POST Application AMARE herbicidal damage” value [11] was 5 (5=80-100% damage) and the “POST Application IPOHE herbicidal damage” value [12] was 4 (4=60-79% damage).
